Experiments:
Format in all cases: functional
Aedes aegypti [1] = experiment: Insecticidal activity against Aedes aegypti assessed as insect mortality at 2 ppm
Aedes aegypti [2] = experiment: Insecticidal activity against Aedes aegypti assessed as lethal compound dose per mosquito measured after 24 hr post topical application
Planorbella trivolvis = experiment: Molluscicidal activity against Planorbella trivolvis
Pomacea canaliculata [3] = experiment: Molluscicidal activity against Pomacea canaliculata
Pomacea canaliculata [4] = experiment: Molluscicidal activity against Pomacea canaliculata assessed as mortality at 200 uM after 24 hr
Pomacea canaliculata [5] = experiment: Molluscicidal activity against Pomacea canaliculata assessed as mortality at 75 uM after 24 hr

O=C(/C=C/C=C/CCCCCCc1ccc2c(c1)OCO2)N1CCCCC1
mortality at 2 ppm (Aedes aegypti [1]): 20%

CC(C)NC(=O)/C=C/C=C/CCCCCCc1ccc2c(c1)OCO2
mortality at 2 ppm (Aedes aegypti [1]): 80%

C=CCCCCCCCCC(=O)N1CCCCC1CC (stereo unspecified) [2-ethyl-1-undec-10-enoyl-piperidine]
LD50 (Aedes aegypti [2]): 0.8 µg

C/C=C\C#CC#C/C=C\C(=O)OC [(2Z,8Z)-MATRICARIA ACID METHYL ESTER]
LC50 (Planorbella trivolvis): 24 µM

CC1(C)CC[C@]2(C(=O)O)CC[C@]3(C)C(=CC[C@@H]4[C@@]5(C)CC[C@H](O[C@@H]6O[C@H](CO)[C@@H](O)[C@H](O)[C@H]6O)[C@@](C)(CO)[C@@H]5CC[C@]43C)[C@@H]2C1 [Hederagenin-3-O-beta-D-glucopyranoside]
LC50 (Planorbella trivolvis): 30 µM

COC(=O)N(C(=O)N1CO[C@@]2(C(=O)OC)Cc3cc(Cl)ccc3C2=N1)c1ccc(OC(F)(F)F)cc1 [INDOXACARB]
mortality at 2 ppm (Aedes aegypti [1]): 40%

CC1OC(C)OC(C)OC(C)O1 (stereo unspecified) [METALDEHYDE]
LC50 (Pomacea canaliculata [3]): 30 µM | mortality at 200 µM (Pomacea canaliculata [4]): 100%

O=C(/C=C/C=C/c1ccc2c(c1)OCO2)N1CCCCC1 [PIPERINE]
LD50 (Aedes aegypti [2]): 8.13 µg

CC1=CC(=O)C2C3C1C2(C)CCCC3(C)C (stereo unspecified) [VULGARONE B]
LC50 (Pomacea canaliculata [3]): 30 µM | mortality at 75 µM (Pomacea canaliculata [5]): 100%
